Patent publication US20230399342A1 (Incyte Corporation, priority 2022, published 2023)

What was measured:
DGKα = DGKα (Homo sapiens (Human), UniProt P23743); assay: In vitro DGKα inhibition assay (ADP-Glo); format: biochemical; conditions: His-tagged human recombinant enzyme, 0.1 nM DGKα, 50 μM ATP, 20 μM DLG, 90 minute incubation
Outline: (§1)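 His-tagged human DGKα (0.1 nM, 50 μM ATP) or DGKζ (0.4 nM, 30 μM ATP), each with 20 μM DLG, in Tris pH 7.5 buffer with CHAPS, Mg2+, Ca2+.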

DGKζ = DGKζ (Homo sapiens (Human), UniProt Q13574); assay: In vitro DGKζ inhibition assay (ADP-Glo); format: biochemical; conditions: His-tagged human recombinant enzyme, 0.4 nM DGK, 30 μM ATP, 20 μM DLG, 90 minute incubation
Outline: as §1

Sequence of DGKα (P23743 whole entry): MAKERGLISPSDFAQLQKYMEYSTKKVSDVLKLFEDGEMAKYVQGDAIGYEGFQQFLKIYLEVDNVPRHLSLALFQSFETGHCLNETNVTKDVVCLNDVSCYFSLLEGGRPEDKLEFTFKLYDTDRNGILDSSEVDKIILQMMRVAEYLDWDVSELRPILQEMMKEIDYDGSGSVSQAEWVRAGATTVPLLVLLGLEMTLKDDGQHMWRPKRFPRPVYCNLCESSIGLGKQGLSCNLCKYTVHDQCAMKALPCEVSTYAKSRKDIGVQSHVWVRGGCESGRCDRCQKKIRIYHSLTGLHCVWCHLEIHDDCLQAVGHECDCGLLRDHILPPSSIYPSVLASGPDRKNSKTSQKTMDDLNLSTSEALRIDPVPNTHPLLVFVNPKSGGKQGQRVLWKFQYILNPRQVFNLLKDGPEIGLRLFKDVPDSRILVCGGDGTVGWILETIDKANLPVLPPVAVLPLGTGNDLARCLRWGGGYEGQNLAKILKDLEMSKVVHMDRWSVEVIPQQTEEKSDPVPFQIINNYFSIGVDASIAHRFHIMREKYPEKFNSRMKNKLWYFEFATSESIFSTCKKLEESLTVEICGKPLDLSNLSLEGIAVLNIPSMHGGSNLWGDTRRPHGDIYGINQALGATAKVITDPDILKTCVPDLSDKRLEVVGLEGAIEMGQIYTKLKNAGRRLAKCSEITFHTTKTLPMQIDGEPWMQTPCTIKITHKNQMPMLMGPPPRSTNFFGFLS
Sequence of DGKζ (Q13574 whole entry): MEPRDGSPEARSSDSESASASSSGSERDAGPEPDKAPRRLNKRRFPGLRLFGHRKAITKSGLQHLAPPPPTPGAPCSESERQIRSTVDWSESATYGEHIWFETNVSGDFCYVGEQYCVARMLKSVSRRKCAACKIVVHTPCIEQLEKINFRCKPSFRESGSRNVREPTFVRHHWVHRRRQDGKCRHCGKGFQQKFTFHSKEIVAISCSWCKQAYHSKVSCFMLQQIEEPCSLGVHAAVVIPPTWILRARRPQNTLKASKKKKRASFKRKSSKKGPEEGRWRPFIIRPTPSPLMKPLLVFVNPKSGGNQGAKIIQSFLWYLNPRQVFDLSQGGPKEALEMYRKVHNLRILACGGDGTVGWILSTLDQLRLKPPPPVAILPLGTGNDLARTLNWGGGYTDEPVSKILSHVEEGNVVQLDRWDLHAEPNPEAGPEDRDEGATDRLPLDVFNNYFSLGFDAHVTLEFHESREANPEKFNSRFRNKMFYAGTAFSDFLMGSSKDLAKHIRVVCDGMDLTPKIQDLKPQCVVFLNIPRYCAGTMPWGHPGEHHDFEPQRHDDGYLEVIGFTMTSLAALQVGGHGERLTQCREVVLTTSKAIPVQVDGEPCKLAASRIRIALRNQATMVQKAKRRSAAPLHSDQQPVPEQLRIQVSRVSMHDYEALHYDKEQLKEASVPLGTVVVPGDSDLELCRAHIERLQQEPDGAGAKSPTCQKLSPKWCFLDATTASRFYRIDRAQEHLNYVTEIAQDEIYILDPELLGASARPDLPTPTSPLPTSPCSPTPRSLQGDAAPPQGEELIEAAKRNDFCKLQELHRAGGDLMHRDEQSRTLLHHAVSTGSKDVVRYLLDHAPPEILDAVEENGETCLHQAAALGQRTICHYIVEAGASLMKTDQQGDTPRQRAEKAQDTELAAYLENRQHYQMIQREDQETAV

Row | Structure (SMILES) | IC50 (DGKα) [nM] | IC50 (DGKζ) [nM]
1 | Cc1nc2c(N3C[C@@H](C)N([C@@H](c4ccc(F)c(Cl)c4)C(C)C)C[C@@H]3C)nc3nncn3c2n1C[C@@H]1CCCO1 (single isomer, unassigned) [Example 87] | ≤ 20 | ≤ 20
2 | [2H]c1nc2c(N3C[C@@H](CC)N(C(c4ccc(F)cc4)c4ccc(F)cc4)C[C@@H]3C)nc3nncn3c2n1CCN(C)C [Example 38, 2-(4-((2S,5R)-4-(Bis(4-fluorophenyl)methyl)-5-ethyl-2-methylpiperazin-1-yl)-1H-[1,2,4]triazolo[3,4-b]purin-1-yl-2-d)-N,N-dimethylethan-1-amine] | ≤ 20 | ≤ 20
3 | C[C@@H]1CN(c2nc3nncn3c3c2ncn3CC2CC2)[C@@H](C)CN1[C@H](c1ccc(F)cc1)c1ccc(OC(F)(F)F)cn1 [Example 25, 1-(cyclopropylmethyl)-4-((2S,5R)-4-((R)-(4-fluorophenyl)(5-(trifluoromethoxy)pyridin-2-yl)methyl)-2,5-dimethylpiperazin-1-yl)-1H-[1,2,4]triazolo[3,4-b]purine] | ≤ 20 | 20 to 200
4 | Cc1nc2c(N3C[C@@H](C)N(C(c4ccc(C(F)(F)F)cc4)C4CCC(F)(F)CC4)C[C@@H]3C)nc3nncn3c2n1C[C@@H]1CCCO1 (stereo partly drawn) [Example 117, 4-((2S,5R)-4-((4,4-Difluorocyclohexyl)(4-(trifluoromethyl)phenyl)methyl)-2,5-dimethylpiperazin-1-yl)-2-methyl-1-(((S)-tetrahydrofuran-2-yl)methyl)-1H-[1,2,4]triazolo[3,4-b]purine] | ≤ 20 | ≤ 20
5 | CC[C@@H]1CN(c2nc3nncn3c3c2nnn3C[C@@H]2CCCO2)[C@@H](C)CN1C(c1ccc(F)cc1)C1CC(F)(F)C1 (single isomer, unassigned) [Example 120] | ≤ 20 | ≤ 20
6 | Cc1nc2c(N3C[C@@H](C)N(C(c4ccc(F)c(C(F)F)c4)C(C)C)C[C@@H]3C)nc3nncn3c2n1C[C@@H]1CCCO1 (stereo partly drawn) [Example 82, 4-((2S,5R)-4-(1-(3-(Difluoromethyl)-4-fluorophenyl)-2-methylpropyl)-2,5-dimethylpiperazin-1-yl)-2-methyl-1-(((S)-tetrahydrofuran-2-yl)methyl)-1H-[1,2,4]triazolo[3,4-b]purine] | ≤ 20 | ≤ 20
7 | Cc1nc2c(N3C[C@@H](C)N([C@H](c4ccc(Cl)c(Cl)c4)C4CC(F)(F)C4)C[C@@H]3C)nc3nncn3c2n1C[C@@H]1CCCO1 [Example 48, 4-((2S,5R)-4-((S)-(3,4-Dichlorophenyl)(3,3-difluorocyclobutyl)methyl)-2,5-dimethylpiperazin-1-yl)-2-methyl-1-(((S)-tetrahydrofuran-2-yl)methyl)-1H-[1,2,4]triazolo[3,4-b]purine] | ≤ 20 | ≤ 20
8 | Cc1nc2c(N3C[C@@H](C)N([C@H](c4cccc(Cl)c4)C(C)C)C[C@@H]3C)nc3nncn3c2n1C[C@@H]1CCCO1 [Example 96, 4-((2S,5R)-4-((S)-1-(3-Chlorophenyl)-2-methylpropyl)-2,5-dimethylpiperazin-1-yl)-2-methyl-1-(((S)-tetrahydrofuran-2-yl)methyl)-1H-[1,2,4]triazolo[3,4-b]purine] | ≤ 20 | ≤ 20
9 | Cc1nc2c(N3C[C@@H](C)N(C(c4ccc(Br)cc4)c4ccc(F)c(Cl)c4)C[C@@H]3C)nc3nncn3c2n1C[C@@H]1CCCO1 (single isomer, unassigned) [Example 141] | ≤ 20 | ≤ 20
10 | Cc1nc2c(N3C[C@@H](C)N([C@@H](c4ccc(OC(F)(F)F)cc4)C(C)C)C[C@@H]3C)nc3nncn3c2n1C[C@@H]1CCCO1 [Example 119, 4-((2S,5R)-2,5-dimethyl-4-((R)-2-methyl-1-(4-(trifluoromethoxy)phenyl)propyl)piperazin-1-yl)-2-methyl-1-(((S)-tetrahydrofuran-2-yl)methyl)-1H-[1,2,4]triazolo[3,4-b]purine] | ≤ 20 | ≤ 20
11 | CC(C)[C@@H](c1ccc(F)cc1)N1C[C@H](C)N(c2nc3nncn3c3c2ncn3CC2CC2)C[C@H]1C [Example 22, 1-(Cyclopropylmethyl)-4-((2S,5R)-4-((S)-1-(4-fluorophenyl)-2-methylpropyl)-2,5-dimethylpiperazin-1-yl)-1H-[1,2,4]triazolo[3,4-b]purine] | ≤ 20 | ≤ 20
12 | COc1ccc([C@H](C(C)C)N2C[C@H](C)N(c3nc4nncn4c4c3nc(C)n4C[C@@H]3CCCO3)C[C@H]2C)cc1 [Example 77, 4-((2S,5R)-4-((S)-1-(4-Methoxyphenyl)-2-methylpropyl)-2,5-dimethylpiperazin-1-yl)-2-methyl-1-(((S)-tetrahydrofuran-2-yl)methyl)-1H-[1,2,4]triazolo[3,4-b]purine] | ≤ 20 | ≤ 20
13 | Cc1nc2c(N3C[C@@H](C)N(C(c4ccc(C(F)(F)F)c(Cl)c4)C(C)C)C[C@@H]3C)nc3nncn3c2n1C[C@@H]1CCCO1 (stereo partly drawn) [Example 85, 4-((2S,5R)-4-(1-(3-Chloro-4-(trifluoromethyl)phenyl)-2-methylpropyl)-2,5-dimethylpiperazin-1-yl)-2-methyl-1-(((S)-tetrahydrofuran-2-yl)methyl)-1H-[1,2,4]triazolo[3,4-b]purine] | ≤ 20 | ≤ 20
14 | Cc1nc2c(N3C[C@@H](C)N(C(c4ccc(F)c(Cl)c4)C4CC(F)(F)C4)C[C@@H]3C)nc3nncn3c2n1C[C@@H]1CCCO1 (single isomer, unassigned) [Example 44] | ≤ 20 | ≤ 20
15 | CC[C@@H]1CN(c2nc3nncn3c3c2nc(C)n3C[C@@H]2CCCO2)[C@@H](C)CN1C(c1ccc(F)cc1)c1ccc(C#N)cc1 (stereo partly drawn) [Example 132, 4-(((2R,5S)-2-Ethyl-5-methyl-4-(2-methyl-1-(((S)-tetrahydrofuran-2-yl)methyl)-1H-[1,2,4]triazolo[3,4-b]purin-4-yl)piperazin-1-yl)(4-fluorophenyl)methyl)benzonitrile] | ≤ 20 | ≤ 20
16 | C[C@@H]1CN(c2nc3nncn3c3c2ncn3C[C@@H]2CCCO2)[C@@H](C)CN1[C@@H](c1ccc(F)cc1)c1ccc(OC(F)(F)F)cn1 [Example 26, 4-((2S,5R)-4-((S)-(4-Fluorophenyl)(5-(trifluoromethoxy)pyridin-2-yl)methyl)-2,5-dimethylpiperazin-1-yl)-1-(((S)-tetrahydrofuran-2-yl)methyl)-1H-[1,2,4]triazolo[3,4-b]purine] | ≤ 20 | ≤ 20
17 | CC[C@@H]1CN(c2nc3nncn3c3c2nc(C)n3C[C@@H]2CCCO2)[C@@H](C)CN1[C@H](c1ccc(OC(F)(F)F)cc1)C(C)C [Example 130, 4-((2S,5R)-5-ethyl-2-methyl-4-((S)-2-methyl-1-(4-(trifluoromethoxy)phenyl)propyl)piperazin-1-yl)-2-methyl-1-(((S)-tetrahydrofuran-2-yl)methyl)-1H-[1,2,4]triazolo[3,4-b]purine] | ≤ 20 | ≤ 20

The remaining lines, values ahead:

Row | IC50 (DGKα) [nM] | IC50 (DGKζ) [nM] | Structure (SMILES)
18 | ≤ 20 | ≤ 20 | Cc1nc2c(N3C[C@@H](C)N(C(c4ccc(C(F)(F)F)c(Cl)c4)C4CC(F)(F)C4)C[C@@H]3C)nc3nncn3c2n1C[C@@H]1CCCO1 (stereo partly drawn) [Example 58, 4-((2S,5R)-4-((3-Chloro-4-(trifluoromethyl)phenyl)(3,3-difluorocyclobutyl)methyl)-2,5-dimethylpiperazin-1-yl)-2-methyl-1-(((S)-tetrahydrofuran-2-yl)methyl)-1H-[1,2,4]triazolo[3,4-b]purine]
19 | ≤ 20 | ≤ 20 | CC[C@@H]1CN(c2nc3nncn3c3c2nc(C)n3C[C@H]2CCCO2)[C@@H](C)CN1C(c1ccc(Cl)cc1)c1ccc(Cl)cc1 [Example 42, 4-((2S,5R)-4-(Bis(4-chlorophenyl)methyl)-5-ethyl-2-methylpiperazin-1-yl)-2-methyl-1-(((R)-tetrahydrofuran-2-yl)methyl)-1H-[1,2,4]triazolo[3,4-b]purine]
20 | ≤ 20 | 20 to 200 | CC(C)[C@H](c1ccc(Cl)cc1)N1C[C@H](C)N(c2nc3nncn3c3c2ncn3CCN(C)C)C[C@H]1C [Example 91, 2-(4-((2S,5R)-4-((R)-1-(4-chlorophenyl)-2-methylpropyl)-2,5-dimethylpiperazin-1-yl)-1H-[1,2,4]triazolo[3,4-b]purin-1-yl)-N,N-dimethylethan-1-amine]
21 | ≤ 20 | ≤ 20 | Cc1nc2c(N3C[C@@H](C)N(C(c4ccc(Br)c(F)c4)C4CC(F)(F)C4)C[C@@H]3C)nc3nncn3c2n1C[C@@H]1CCCO1 (stereo partly drawn) [Example 63, 4-((2S,5R)-4-((4-Bromo-3-fluorophenyl)(3,3-difluorocyclobutyl)methyl)-2,5-dimethylpiperazin-1-yl)-2-methyl-1-(((S)-tetrahydrofuran-2-yl)methyl)-1H-[1,2,4]triazolo[3,4-b]purine]
22 | ≤ 20 | ≤ 20 | Cc1nc2c(N3C[C@@H](C)N(C(c4ccc(Cl)cc4)c4ccc(F)c(Cl)c4)C[C@@H]3C)nc3nncn3c2n1C[C@@H]1CCCO1 (single isomer, unassigned) [Example 140]
23 | ≤ 20 | ≤ 20 | C[C@@H]1CN(c2nc3nncn3c3c2ncn3CCN(C)C)[C@@H](C)CN1C(c1ccc(C(F)(F)F)cc1)[C@H]1C[C@H](C(F)(F)F)C1 (stereo partly drawn) [Example 116, 2-(4-((2S,5R)-2,5-Dimethyl-4-(((trans)-3-(trifluoromethyl)cyclobutyl)(4-(trifluoromethyl)phenyl)methyl)piperazin-1-yl)-1H-[1,2,4]triazolo[3,4-b]purin-1-yl)-N,N-dimethylethan-1-amine]
24 | ≤ 20 | ≤ 20 | Cc1nc2c(N3C[C@@H](C)N(C(c4ccc(F)c(Br)c4)C4CC(F)(F)C4)C[C@@H]3C)nc3nncn3c2n1C[C@@H]1CCCO1 (stereo partly drawn) [Example 62, 4-((2S,5R)-4-((3-Bromo-4-fluorophenyl)(3,3-difluorocyclobutyl)methyl)-2,5-dimethylpiperazin-1-yl)-2-methyl-1-(((S)-tetrahydrofuran-2-yl)methyl)-1H-[1,2,4]triazolo[3,4-b]purine]
